From ChEMBL document CHEMBL5335843, “Application of tobramycin benzyl ether as an antibiotic adjuvant capable of sensitizing multidrug-resistant Gram-negative bacteria to rifampicin” (2024)
Calls of active or inactive are those of the source. No cut-off for these calls is given here.

Columns and labels:
Acinetobacter baumannii [1] = assay: Antibacterial activity against multi-drug resistant Acinetobacter baumannii clinical isolate AB027 assessed as inhibition of bacterial growth incubated for 18 hrs by two fold broth microdilution assay; format: functional
Pseudomonas aeruginosa [2] = assay: Antibacterial activity against multi-drug resistant Pseudomonas aeruginosa clinical isolate PA264 assessed as inhibition of bacterial growth incubated for 18 hrs by two fold broth microdilution assay; format: functional
Pseudomonas aeruginosa [3] = assay: Antibiotic adjuvant activity against multi-drug resistant Pseudomonas aeruginosa clinical isolate 114228 assessed as rifampicin MIC incubated for 18 hrs in presence of Rifampicin by two fold broth microdilution checkerboard assay; format: functional
Pseudomonas aeruginosa [4] = assay: Antibiotic adjuvant activity against multi-drug resistant Pseudomonas aeruginosa clinical isolate 101243 assessed as inhibition of bacterial growth incubated for 18 hrs in presence of Rifampicin by two fold broth microdilution checkerboard assay; format: functional
Escherichia coli [5] = assay: Antibiotic adjuvant activity against multi-drug resistant Escherichia coli clinical isolate 107115 assessed as inhibition of bacterial growth incubated for 18 hrs in presence of Rifampicin by two fold broth microdilution checkerboard assay; format: functional
Escherichia coli [6] = assay: Antibiotic adjuvant activity against multi-drug resistant Escherichia coli clinical isolate 94393 assessed as inhibition of bacterial growth incubated for 18 hrs in presence of Rifampicin by two fold broth microdilution checkerboard assay; format: functional
Acinetobacter baumannii [7] = assay: Antibiotic adjuvant activity against multi-drug resistant Acinetobacter baumannii clinical isolate AB027 assessed as inhibition of bacterial growth incubated for 18 hrs in presence of Rifampicin by two fold broth microdilution checkerboard assay; format: functional
Escherichia coli [8] = assay: Antibiotic adjuvant activity against multi-drug resistant Escherichia coli clinical isolate 107115 assessed as fold potentiation incubated for 18 hrs in presence of Rifampicin by two fold broth microdilution checkerboard assay; format: functional
Acinetobacter baumannii [9] = assay: Antibiotic adjuvant activity against multi-drug resistant Acinetobacter baumannii clinical isolate 92247 assessed as fold potentiation incubated for 18 hrs in presence of Rifampicin by two fold broth microdilution checkerboard assay; format: functional
Pseudomonas aeruginosa [10] = assay: Antibiotic adjuvant activity against multi-drug resistant Pseudomonas aeruginosa clinical isolate PA264 assessed as fractional inhibitory concentration index incubated for 18 hrs in presence of Rifampicin by two fold broth microdilution checkerboard assay; format: functional
Acinetobacter baumannii [11] = assay: Antibiotic adjuvant activity against multi-drug resistant Acinetobacter baumannii clinical isolate AB027 assessed as fractional inhibitory concentration index incubated for 18 hrs in presence of Rifampicin by two fold broth microdilution checkerboard assay; format: functional
Pseudomonas aeruginosa [12] = assay: Antibiotic adjuvant activity against multi-drug resistant Pseudomonas aeruginosa clinical isolate PA262 assessed as minocycline MIC incubated for 18 hrs in presence of minocycline by two fold broth microdilution checkerboard assay; format: functional
Escherichia coli [13] = assay: Antibiotic adjuvant activity against multi-drug resistant Escherichia coli clinical isolate EC94474 assessed as minocycline MIC incubated for 18 hrs in presence of minocycline by two fold broth microdilution checkerboard assay; format: functional
Escherichia coli [14] = assay: Antibiotic adjuvant activity against multi-drug resistant Escherichia coli clinical isolate EC94474 assessed as inhibition of bacterial growth incubated for 18 hrs in presence of minocycline by two fold broth microdilution checkerboard assay; format: functional
Pseudomonas aeruginosa [15] = assay: Antibiotic adjuvant activity against multi-drug resistant Pseudomonas aeruginosa clinical isolate PA262 assessed as fold potentiation incubated for 18 hrs in presence of minocycline by two fold broth microdilution checkerboard assay; format: functional
Pseudomonas aeruginosa [16] = assay: Antibiotic adjuvant activity against multi-drug resistant Pseudomonas aeruginosa clinical isolate PA264 assessed as fold potentiation incubated for 18 hrs in presence of minocycline by two fold broth microdilution checkerboard assay; format: functional
Pseudomonas aeruginosa [17] = assay: Antibiotic adjuvant activity against multi-drug resistant Pseudomonas aeruginosa clinical isolate PA101243 assessed as fractional inhibitory concentration index incubated for 18 hrs in presence of minocycline by two fold broth microdilution checkerboard assay; format: functional
Pseudomonas aeruginosa [18] = assay: Antibiotic adjuvant activity against multi-drug resistant Pseudomonas aeruginosa clinical isolate PA262 assessed as fractional inhibitory concentration index incubated for 18 hrs in presence of minocycline by two fold broth microdilution checkerboard assay; format: functional
Escherichia coli [19] = assay: Antibiotic adjuvant activity against multi-drug resistant Escherichia coli clinical isolate EC94474 assessed as fractional inhibitory concentration index incubated for 18 hrs in presence of minocycline by two fold broth microdilution checkerboard assay; format: functional
Pseudomonas aeruginosa [20] = assay: Antibiotic adjuvant activity against multi-drug resistant Pseudomonas aeruginosa clinical isolate PA262 assessed as doxycycline MIC incubated for 18 hrs in presence of doxycycline by two fold broth microdilution checkerboard assay; format: functional
Escherichia coli [21] = assay: Antibiotic adjuvant activity against multi-drug resistant Escherichia coli clinical isolate EC107115 assessed as doxycycline MIC incubated for 18 hrs in presence of doxycycline by two fold broth microdilution checkerboard assay; format: functional
Pseudomonas aeruginosa [22] = assay: Antibiotic adjuvant activity against multi-drug resistant Pseudomonas aeruginosa clinical isolate PA259 assessed as inhibition of bacterial growth incubated for 18 hrs in presence of doxycycline by two fold broth microdilution checkerboard assay; format: functional
Escherichia coli [23] = assay: Antibiotic adjuvant activity against multi-drug resistant Escherichia coli clinical isolate EC107115 assessed as inhibition of bacterial growth incubated for 18 hrs in presence of doxycycline by two fold broth microdilution checkerboard assay; format: functional
Escherichia coli [24] = assay: Antibiotic adjuvant activity against multi-drug resistant Escherichia coli clinical isolate EC94474 assessed as inhibition of bacterial growth incubated for 18 hrs in presence of doxycycline by two fold broth microdilution checkerboard assay; format: functional
Pseudomonas aeruginosa [25] = assay: Antibiotic adjuvant activity against multi-drug resistant Pseudomonas aeruginosa clinical isolate PA262 assessed as fractional inhibitory concentration index incubated for 18 hrs in presence of doxycycline by two fold broth microdilution checkerboard assay; format: functional
Pseudomonas aeruginosa [26] = assay: Antibiotic adjuvant activity against multi-drug resistant Pseudomonas aeruginosa clinical isolate PA264 assessed as fractional inhibitory concentration index incubated for 18 hrs in presence of doxycycline by two fold broth microdilution checkerboard assay; format: functional
Enterococcus faecium [27] = assay: Antibacterial activity against Enterococcus faecium 114278 assessed as inhibition of bacterial growth incubated for 18 hrs by two fold broth microdilution assay; format: functional
Enterococcus faecium [28] = assay: Antibiotic adjuvant activity against Enterococcus faecium 128149 assessed as rifampicin MIC incubated for 18 hrs in presence of rifampicin by two fold broth microdilution checkerboard assay; format: functional
Enterococcus faecium [29] = assay: Antibiotic adjuvant activity against Enterococcus faecium 128149 assessed as fractional inhibitory concentration index incubated for 18 hrs in presence of rifampicin by two fold broth microdilution checkerboard assay; format: functional
Escherichia coli [30] = assay: Antibiotic adjuvant activity against Escherichia coli ATCC 25922 assessed as fold potentiation incubated for 18 hrs in presence of Rifampicin by two fold broth microdilution checkerboard assay; format: functional
Cell membrane = assay: Induction of outer membrane permeabilization in Escherichia coli ATCC 25922 assessed as increase fluorescence intensity by measuring NPN uptake factor at 4 to 8 uM by fluorescence based analysis; format: subcellular; conditions: dose 4-8 µM, TDE = time-dependent effect
Escherichia coli [31] = assay: Antibiotic adjuvant activity against Escherichia coli ATCC 25922 assessed as fold potentiation incubated for 18 hrs in presence of rifampicin and CAMHB Na+ media by two fold broth microdilution checkerboard assay; format: functional
Acinetobacter baumannii [32] = assay: Antibiotic adjuvant activity against Acinetobacter baumannii ATCC 17978 assessed as fold potentiation incubated for 18 hrs in presence of rifampicin and CAMHB Na+ media by two fold broth microdilution checkerboard assay; format: functional
Acinetobacter baumannii [33] = assay: Antibiotic adjuvant activity against Acinetobacter baumannii ATCC 17978 at 8 to 11 ug/ml incubated for 18 hrs in presence of rifampicin and 10 % FBS media by two fold broth microdilution checkerboard assay; format: functional, organism-based; conditions: dose 8-11 µg/ml
Escherichia coli [34] = assay: Antibiotic adjuvant activity against Escherichia coli ATCC 25922 at 8 to 11 ug/ml incubated for 18 hrs in presence of rifampicin and 25 % FBS media by two fold broth microdilution checkerboard assay; format: functional, organism-based; conditions: dose 8-11 µg/ml

Question: With `Cl.NC[C@H]1O[C@H](O[C@H]2[C@H](OCc3ccccc3)[C@@H](O[C@H]3O[C@H](COCc4ccccc4)[C@@H](OCc4ccccc4)[C@H](N)[C@H]3OCc3ccccc3)[C@H](N)C[C@@H]2N)[C@H](N)C[C@@H]1OCc1ccccc1` as the molecule, how does the MIC (Acinetobacter baumannii [1]) read?
Answer: 64 µg/mL

Question: And the MIC (Pseudomonas aeruginosa [2])?
Answer: 128 µg/mL

Question: What about the MIC (Pseudomonas aeruginosa [3]) of the same molecule?
Answer: 16 µg/mL

Question: What about the MIC (Pseudomonas aeruginosa [4]) of the same molecule?
Answer: 8 µg/mL

Question: And the MIC (Escherichia coli [5])?
Answer: 2 µg/mL

Question: And the MIC (Escherichia coli [6])?
Answer: 8 µg/mL

Question: And the MIC (Acinetobacter baumannii [7])?
Answer: 8 µg/mL

Question: What about the “fold change (FC)” value (Escherichia coli [8]) of the same molecule?
Answer: 1024

Question: What about the “fold change (FC)” value (Acinetobacter baumannii [9]) of the same molecule?
Answer: 512

Question: What about the “fractional inhibitory concentration index (FICI)” value (Pseudomonas aeruginosa [10]) of the same molecule?
Answer: 1.063

Question: What about the “fractional inhibitory concentration index (FICI)” value (Acinetobacter baumannii [11]) of the same molecule?
Answer: 0.125

Question: And the MIC (Pseudomonas aeruginosa [12])?
Answer: 256 µg/mL

Question: What about the MIC (Escherichia coli [13]) of the same molecule?
Answer: 1 µg/mL

Question: And the MIC (Escherichia coli [14])?
Answer: 8 µg/mL

Question: And the “fold change (FC)” value (Pseudomonas aeruginosa [15])?
Answer: 1

Question: What about the “fold change (FC)” value (Pseudomonas aeruginosa [16]) of the same molecule?
Answer: 2

Question: And the “fractional inhibitory concentration index (FICI)” value (Pseudomonas aeruginosa [17])?
Answer: 1.063

Question: And the “fractional inhibitory concentration index (FICI)” value (Pseudomonas aeruginosa [18])?
Answer: 1.063

Question: And the “fractional inhibitory concentration index (FICI)” value (Escherichia coli [19])?
Answer: 0.094

Question: And the MIC (Pseudomonas aeruginosa [20])?
Answer: 512 µg/mL

Question: What about the MIC (Escherichia coli [21]) of the same molecule?
Answer: 32 µg/mL

Question: And the MIC (Pseudomonas aeruginosa [22])?
Answer: 8 µg/mL

Question: And the MIC (Escherichia coli [23])?
Answer: 8 µg/mL

Question: What about the MIC (Escherichia coli [24]) of the same molecule?
Answer: 8 µg/mL

Question: And the “fractional inhibitory concentration index (FICI)” value (Pseudomonas aeruginosa [25])?
Answer: 1.063

Question: And the “fractional inhibitory concentration index (FICI)” value (Pseudomonas aeruginosa [26])?
Answer: 1.063

Question: What about the MIC (Enterococcus faecium [27]) of the same molecule?
Answer: 8 µg/mL

Question: What about the MIC (Enterococcus faecium [28]) of the same molecule?
Answer: 8 µg/mL

Question: And the “fractional inhibitory concentration index (FICI)” value (Enterococcus faecium [29])?
Answer: 1.5

Question: And the “fold change (FC)” value (Escherichia coli [30])?
Answer: 8

Question: And the Activity (Cell membrane)?
Answer: Tde

Question: And the fold change (FC) (Escherichia coli [31])?
Answer: 512

Question: And the fold change (FC) (Acinetobacter baumannii [32])?
Answer: 256

Question: And the Activity (Acinetobacter baumannii [33])?
Answer: inactive

Question: What about the Activity (Escherichia coli [34]) of the same molecule?
Answer: inactive
